Values quoted from earlier work, collected in patent US20080009419A1, “GENETIC MODELS FOR STRATIFICATION OF CANCER RISK” (INTERGENETICS, INC., priority 2006, published 2008).
Where two headings read alike, the source gives them in different places.

Assays:
[1] = for range of peak plasma concentration: single oral dose of 20 mg tamoxifen
[2] = test system: invasive breast cancer incidence; conditions: postmenopausal women at high risk, by mouth once a day
[3] = test system: incidence of breast cancer; conditions: large osteoporosis prevention and treatment study
[4] = following chronic dosing
[5] = test system: estrogen receptors; conditions: preclinical data
[6] = test system: estrogen receptors; conditions: animal test systems
[7] = test system: rat mammary carcinoma induced by dimethylbenzanthracene (DMBA); conditions: rats
[8] = 10 mg tamoxifen twice daily for 3 months, patients
[9] = 20 mg tamoxifen once daily for 3 months

| SMILES | range of steady-state plasma concentration [1, 8] | range of steady-state plasma concentration [1, 9] | range of peak plasma concentration [1] | reduction in invasive breast cancer incidence [2] | further results |
| --- | --- | --- | --- | --- | --- |
| CC/C(=C(\c1ccccc1)c1ccc(OCCNC)cc1)c1ccccc1 [N-desmethyl tamoxifen] | 148 to 654 ng/mL | 152 to 706 ng/mL | 10 to 20 ng/mL |  | half-life suggested by time to steady state ([1]; human, in vivo): approximately 14 days |
| O=C(c1ccc(OCCN2CCCCC2)cc1)c1c(-c2ccc(O)cc2)sc2cc(O)ccc12 [Raloxifene] |  |  |  | 50% | incidence of breast cancer [3]: shown to reduce the incidence of breast cancer; clearance [4]: 40 to 60 L/kg per hour; estrogen antagonism in uterine and breast tissues [5]: estrogen antagonist |
| CC/C(=C(\c1ccccc1)c1ccc(OCCN(C)C)cc1)c1ccccc1.O=C(O)CC(O)(CC(=O)O)C(=O)O [Tamoxifen citrate, (Z)2-[4-(1,2-diphenyl-1-butenyl)phenoxy]-N,N-dimethylethanamine 2-hydroxy-1,2,3-propanetricarboxylate (1:1)] |  |  |  |  | antiestrogenic properties [6]: potent antiestrogenic properties |
| CC/C(=C(\c1ccccc1)c1ccc(OCCN(C)C)cc1)c1ccccc1 [Tamoxifen] | 67 to 183 ng/mL | 71 to 183 ng/mL | 35 to 45 ng/mL | 50% | DMBA-induced tumors in situ [7]: causes the regression; terminal elimination half-life ([1]; biphasic decline in plasma): 120 to 170 h |
